Data: patent US5021458A, “Amine derivatives and fungicides containing the same” (Kaken Pharmaceutical Co., Ltd., priority 1984, dated 1991)
In brackets after ≈: the same amount, converted by molar mass.

Assays:
[1] = system: Trichophyton interdigitale; assay: In vitro antifungal activity test (Test Example 1), Sabouraud's agar, Trichophyton interdigitale; assay type: cell-based; conditions: 168 h; (b) Trichophyton interdigitale; 27° C., 7 days; read-out: minimal growth-inhibitory concentration (MIC)
Procedure: (§1) The antifungal activity of the compound of the present invention against Trichophyton metagrophytes, Trichophyton interdigitale and Trichophyton rubrum was tested employing Sabouraud's agar medium.
(§2) Each test compound shown in Table 4 was dissolved into 1 ml of ethanol and thereto distilled water was added to adjust to the concentration of 1000 μg/ml. In this way twofold dilution series was made, 1 ml of which was respectively taken into shale and therewith 9 ml of Sabouraud's agar medium was mixed to form plate medium.
(§3) In this plate medium was implanted 0.0005 ml of each test fungus at 2×10^6 spores/ml by the microplanter MIP-2 (Sakuma Seisakusho Co., Ltd.) and was incubated at 27° C. for 7 days. The results were shown in Table 2 as the minimal growth-inhibitory concentration (MIC, μg/ml).

[2] = system: Trichophyton mentagrophytes; assay: Test on treatment of trichophytosis in guinea pig (Test Example 2); assay type: in vivo; conditions: 0.2 ml of 0.1 % solution in ethanol, once in a day for ten days since 48 hours after infection; guinea pig back skin
Procedure: In the back of male Hartley guinea pig weighing 600° to 700 g, four portions were unhaired in an area of 4 cm^2 respectively and rubbed lightly with sandpaper, to which the second generation of Trichophyton mentagrophytes incubated inversely from another guinea pig was infected at 1×10^5 spores per portion. The test compounds obtained in Example 1 was dissolved in ethanol and 0.2 ml of the resultant 0.1 % solution was applied to the infected portions once in a day for ten days since 48 hours after the infection. Test animal was killed 2 days after the last treatment and 10 tissue specimens from each infected portions were placed on Sabouraud's plates containing cycloheximide and kanamycin, which were incubated at 27° C. for 7 days.
inhibitory ratio ={1-(number of tissue specimens found fungi/number of tissue specimens incubated inversely)}×100

Trichophyton rubrum = assay: In vitro antifungal activity test (Test Example 1), Sabouraud's agar, Trichophyton rubrum; assay type: cell-based; conditions: 168 h; (c) Trichophyton rubrum; 27° C., 7 days; read-out: minimal growth-inhibitory concentration (MIC)
Procedure: as §1, §2, §3

[3] = Side effect test on guinea pig skin (Test Example 3); assay type: in vivo, male Hartley guinea pig; conditions: 0.2 ml/day of 0.5 % solution in ethanol, once in a day for ten days; lightly rubbed guinea pig skin
Procedure: Two portions in the back of male Hartley guinea pig weighing 600° to 700 g were unhaired in an area of 4 cm^2 respectively in order to examine side effects of the test compounds. The next day unhaired portions were lightly rubbed with sandpaper. The test compounds obtained in Example 1 was dissolved in ethanol and 0.2 ml/day of the resultant 0.5 % solution was applied to one of the unhaired portions, while 0.2 ml/day of only ethanol was applied to the other portions, once in a day for ten days respectively.

[4] = system: Trichophyton mentagrophytes; assay: In vitro antifungal activity test (Test Example 1), Sabouraud's agar, Trichophyton mentagrophytes; assay type: cell-based; conditions: 168 h; (a) Trichophyton mentagrophytes; 27° C., 7 days; read-out: minimal growth-inhibitory concentration (MIC)
Procedure: as §1, §2, §3

| MIC [1] | MIC (Trichophyton rubrum) | MIC [4] | SMILES | inhibitory ratio [2] | side effects [3] |
| --- | --- | --- | --- | --- | --- |
| 0.006 µg/mL (≈ 0.0179 µM) | 0.006 µg/mL (≈ 0.0179 µM) | 0.025 µg/mL (≈ 0.0745 µM) | CN(Cc1ccc(C(C)(C)C)cc1)Cc1ccc(F)c2ccccc12 [Example 4] | – | – |
| 0.2 µg/mL (≈ 0.505 µM) | 0.05 µg/mL (≈ 0.126 µM) | 0.2 µg/mL (≈ 0.505 µM) | CN(Cc1ccc(C(C)(C)C)cc1)Cc1ccc(Br)c2ccccc12 [Example 6] | – | – |
| 0.05 µg/mL (≈ 0.138 µM) | 0.025 µg/mL (≈ 0.069 µM) | 0.1 µg/mL (≈ 0.276 µM) | CN(Cc1ccc(C(C)(C)C)cc1)Cc1cccc2c([N+](=O)[O-])cccc12 [Example 8] | – | – |
| 0.025 µg/mL (≈ 0.0754 µM) | 0.003 µg/mL (≈ 0.00905 µM) | 0.025 µg/mL (≈ 0.0754 µM) | CC(c1cccc2ccccc12)N(C)Cc1ccc(C(C)(C)C)cc1 (stereo not shown) [Example 9, N-4-tert-Butylbenzyl-N-methyl-1-(1-naphthyl)ethylamine] | – | – |
| 1.56 µg/mL (≈ 4.91 µM) | 0.39 µg/mL (≈ 1.23 µM) | 1.56 µg/mL (≈ 4.91 µM) | CN(Cc1ccc(C(C)(C)C)cc1)Cc1ccc2ccccc2c1 [Example 10] | – | – |
| 25 µg/mL (≈ 90.8 µM) | 12.5 µg/mL (≈ 45.4 µM) | 25 µg/mL (≈ 90.8 µM) | Cc1cccc(CN(C)Cc2cccc3ccccc23)c1 [Example 13] | – | – |
| 1.56 µg/mL (≈ 4.72 µM) | 1.56 µg/mL (≈ 4.72 µM) | 1.56 µg/mL (≈ 4.72 µM) | CN(Cc1ccc(Cl)c(Cl)c1)Cc1cccc2ccccc12 [Example 17] | – | – |
| 0.2 µg/mL (≈ 0.579 µM) | 0.2 µg/mL (≈ 0.579 µM) | 0.78 µg/mL (≈ 2.26 µM) | CCCN(Cc1ccc(C(C)(C)C)cc1)Cc1cccc2ccccc12 [Example 19] | – | – |
| 0.78 µg/mL (≈ 2.7 µM) | 0.39 µg/mL (≈ 1.35 µM) | 0.78 µg/mL (≈ 2.7 µM) | Cc1ccc(CN(C)Cc2cccc3ccccc23)cc1C [Example 25] | – | – |
| – | 0.025 µg/mL (≈ 0.0773 µM) | 0.025 µg/mL (≈ 0.0773 µM) | CN(Cc1ccc(C(C)(C)C)cc1)Cc1cccc2sccc12 [Example 34] | – | – |
| – | 0.78 µg/mL (≈ 2.41 µM) | 0.78 µg/mL (≈ 2.41 µM) | CN(Cc1ccc(C(C)(C)C)cc1)Cc1cccc2ccsc12 [Example 35] | – | – |
| – | 0.39 µg/mL (≈ 1.21 µM) | 0.39 µg/mL (≈ 1.21 µM) | CN(Cc1ccc(C(C)(C)C)cc1)Cc1cccc2c1CCCC2 [Example 39] | – | – |
| – | 0.2 µg/mL (≈ 0.615 µM) | 0.39 µg/mL (≈ 1.2 µM) | CC(c1cccc2ccccc12)N(C)Cc1ccc2ccccc2c1 (stereo not shown) [Example 51] | – | – |
| – | 0.1 µg/mL (≈ 0.317 µM) | 0.1 µg/mL (≈ 0.317 µM) | CN(Cc1ccc2c(c1)CCCC2)Cc1cccc2ccccc12 [Example 54] | – | – |
| – | 0.2 µg/mL (≈ 0.607 µM) | 0.2 µg/mL (≈ 0.607 µM) | CCN(Cc1ccc2c(c1)CCCC2)Cc1cccc2ccccc12 [Example 56] | – | – |

Further lines, the molecule ahead of its results:

| SMILES | MIC [1] | MIC (Trichophyton rubrum) | MIC [4] | inhibitory ratio [2] | side effects [3] |
| --- | --- | --- | --- | --- | --- |
| CN(Cc1ccc(C(C)(C)C)cc1)Cc1cccc2ccccc12.Cl [Example 1, N-(4-tert-butylbenzyl)-N-methyl-1-naphthylmethylamine hydrochloride] | 0.006 µg/mL | 0.003 µg/mL | 0.0125 µg/mL | 82% | side effects such as, for instance, erythema and papula were not observed |
| Cc1ccc2ccccc2c1CN(C)Cc1ccc(C(C)(C)C)cc1 [Example 2] | 0.1 µg/mL (≈ 0.302 µM) | 0.1 µg/mL (≈ 0.302 µM) | 0.2 µg/mL (≈ 0.603 µM) | – | – |
| Cc1ccc(CN(C)Cc2ccc(C(C)(C)C)cc2)c2ccccc12 [Example 3] | 0.05 µg/mL (≈ 0.151 µM) | 0.025 µg/mL (≈ 0.0754 µM) | 0.1 µg/mL (≈ 0.302 µM) | – | – |
| CN(Cc1ccc(C(C)(C)C)cc1)Cc1ccc(Cl)c2ccccc12 [Example 5] | 0.1 µg/mL (≈ 0.284 µM) | 0.025 µg/mL (≈ 0.071 µM) | 0.1 µg/mL (≈ 0.284 µM) | – | – |
| CN(Cc1ccc(C(C)(C)C)cc1)Cc1ccc(I)c2ccccc12 [Example 7] | 0.39 µg/mL (≈ 0.88 µM) | 0.39 µg/mL (≈ 0.88 µM) | 0.78 µg/mL (≈ 1.76 µM) | – | – |
| CCC(C)(C)c1ccc(CN(C)Cc2cccc3ccccc23)cc1 [Example 12, N-Methyl-N-4-tert-pentylbenzyl-1-naphthylmethylamine] | 0.0125 µg/mL (≈ 0.0377 µM) | 0.006 µg/mL (≈ 0.0181 µM) | 0.0125 µg/mL (≈ 0.0377 µM) | – | – |
| CN(Cc1cccc(C(F)(F)F)c1)Cc1cccc2ccccc12 [Example 14] | 6.25 µg/mL (≈ 19 µM) | 6.25 µg/mL (≈ 19 µM) | 12.5 µg/mL (≈ 38 µM) | – | – |
| Cc1ccc(CN(C)Cc2cccc3ccccc23)cc1 [Example 15] | 3.13 µg/mL (≈ 11.4 µM) | 0.39 µg/mL (≈ 1.42 µM) | 0.78 µg/mL (≈ 2.83 µM) | – | – |
| CN(Cc1ccc(C2CCCCC2)cc1)Cc1cccc2ccccc12 [Example 16] | 1.56 µg/mL (≈ 4.54 µM) | 1.56 µg/mL (≈ 4.54 µM) | 3.13 µg/mL (≈ 9.11 µM) | – | – |
| CCN(Cc1ccc(C(C)(C)C)cc1)Cc1cccc2ccccc12 [Example 18] | 0.05 µg/mL (≈ 0.151 µM) | 0.006 µg/mL (≈ 0.0181 µM) | 0.1 µg/mL (≈ 0.302 µM) | – | – |
| CCCCN(Cc1ccc(C(C)(C)C)cc1)Cc1cccc2ccccc12 [Example 20] | 6.25 µg/mL (≈ 17.4 µM) | 3.13 µg/mL (≈ 8.71 µM) | 6.25 µg/mL (≈ 17.4 µM) | – | – |
| CC(C)c1ccc(CN(C)Cc2cccc3ccccc23)cc1 [Example 22, N-4-Isopropylbenzyl-N-methyl-1-naphthylmethylamine] | 0.1 µg/mL (≈ 0.33 µM) | 0.0125 µg/mL (≈ 0.0412 µM) | 0.025 µg/mL (≈ 0.0824 µM) | – | – |
| CCc1ccc(CN(C)Cc2cccc3ccccc23)cc1 [Example 23] | 0.2 µg/mL (≈ 0.691 µM) | 0.1 µg/mL (≈ 0.346 µM) | 0.1 µg/mL (≈ 0.346 µM) | – | – |
| CCCCc1ccc(CN(C)Cc2cccc3ccccc23)cc1 [Example 24] | 0.2 µg/mL (≈ 0.63 µM) | 0.1 µg/mL (≈ 0.315 µM) | 0.1 µg/mL (≈ 0.315 µM) | – | – |
| Cc1cc(C)cc(CN(C)Cc2cccc3ccccc23)c1 [Example 26] | 12.5 µg/mL (≈ 43.2 µM) | 6.25 µg/mL (≈ 21.6 µM) | 12.5 µg/mL (≈ 43.2 µM) | – | – |
| CN(Cc1ccc(C(C)(C)C)cc1)Cc1c(O)ccc2ccccc12.Cl [Example 28, N-(4-tert-butylbenzyl)-N-methyl-2-hydroxy-1-naphthylmethylamine hydrochloride] | 12.5 µg/mL | 6.25 µg/mL | 25 µg/mL | – | – |
| CN(Cc1ccc(C(C)(C)C)cc1)Cc1csc2ccccc12 [Example 29, N-4-tert-Butylbenzyl-N-methyl-3-benzo[b]-thienylmethylamine] | – | 0.05 µg/mL (≈ 0.155 µM) | 0.05 µg/mL (≈ 0.155 µM) | – | – |
| CCN(Cc1ccc(C(C)(C)C)cc1)Cc1csc2ccccc12 [Example 30] | – | 0.78 µg/mL (≈ 2.31 µM) | 0.78 µg/mL (≈ 2.31 µM) | – | – |
| Cc1cccc2c(CN(C)Cc3ccc(C(C)(C)C)cc3)csc12 [Example 33] | – | 0.1 µg/mL (≈ 0.296 µM) | 0.2 µg/mL (≈ 0.593 µM) | – | – |
| CN(Cc1ccc2ccccc2c1)Cc1ccc(F)c2ccccc12 [Example 43] | – | 0.2 µg/mL (≈ 0.607 µM) | 0.2 µg/mL (≈ 0.607 µM) | – | – |
| Cc1ccc(CN(C)Cc2ccc3ccccc3c2)c2ccccc12 [Example 49] | – | 0.39 µg/mL (≈ 1.2 µM) | 0.39 µg/mL (≈ 1.2 µM) | – | – |
| CCN(Cc1ccc2ccccc2c1)Cc1cccc2ccccc12 [Example 63] | – | 0.1 µg/mL (≈ 0.307 µM) | 0.39 µg/mL (≈ 1.2 µM) | – | – |
| CN(Cc1ccc(C(C)(C)C)s1)Cc1cccc2ccccc12 [Example 69] | – | 0.025 µg/mL (≈ 0.0773 µM) | 0.05 µg/mL (≈ 0.155 µM) | – | – |
